Measurements as given in the supplement of paper PMC10307832.

Assays:
Assay in all cases: relative viability (nuclei count vs DMSO), 5 days (fraction); higher = more cells survive
[1] = test system: CAL-12T
How it was run: (§1)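 Five library-drug doses in √10 steps were combined with a fixed anchor-drug dose, or a single drug was given alone, by pin tool to lung cancer cell lines in 1536-well plates the day after seeding. Nuclei were stained and counted after 5 days. Relative viability is the nuclei count in treated wells over that in vehicle wells, taken as the median of duplicate plates.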

[2] = test system: NCI-H1650
How it was run: as §1

[3] = test system: NCI-H727
How it was run: as §1

[4] = test system: 201T
How it was run: as §1

[5] = test system: NCI-H2087
How it was run: as §1

[6] = test system: HCC-827
How it was run: as §1

[7] = test system: NCI-H1395
How it was run: as §1

[8] = test system: LCLC-103H
How it was run: as §1

[9] = test system: NCI-H647
How it was run: as §1

[10] = test system: RERF-LC-KJ
How it was run: as §1

[11] = test system: LXF-289
How it was run: as §1

[12] = test system: NCI-H1437
How it was run: as §1

[13] = test system: NCI-H2228
How it was run: as §1

[14] = test system: NCI-H2405
How it was run: as §1

[15] = test system: BEN
How it was run: as §1

[16] = test system: LCLC-97TM1
How it was run: as §1

[17] = test system: NCI-H322M
How it was run: as §1

[18] = test system: SK-LU-1
How it was run: as §1

[19] = test system: NCI-H1793
How it was run: as §1

[20] = test system: NCI-H1944
How it was run: as §1

[21] = test system: NCI-H3122
How it was run: as §1

Compound: Cc1sc2c(c1C)C(c1ccc(Cl)cc1)=N[C@@H](CC(=O)OC(C)(C)C)c1nnc(C)n1-2 [JQ1] + O=C(CCCCCCC(=O)Nc1ccccc1)NO [Vorinostat] (partner 1 µM)
- relative viability ([1]; first compound 0.04 µM): 0.853
- relative viability ([1]; first compound 0.1265 µM): 0.838
- relative viability ([1]; first compound 0.4 µM): 0.685
- relative viability ([1]; first compound 1.265 µM): 0.238
- relative viability ([1]; first compound 4 µM): 0.217
- relative viability ([2]; first compound 0.04 µM): 0.6
- relative viability ([2]; first compound 0.1265 µM): 0.438
- relative viability ([2]; first compound 0.4 µM): 0.475
- relative viability ([2]; first compound 1.265 µM): 0.292
- relative viability ([2]; first compound 4 µM): 0.177
- relative viability ([3]; first compound 0.04 µM): 1.47
- relative viability ([3]; first compound 0.1265 µM): 1.14
- relative viability ([3]; first compound 0.4 µM): 0.954
- relative viability ([3]; first compound 1.265 µM): 1.08
- relative viability ([3]; first compound 4 µM): 0.621
- relative viability ([4]; first compound 0.04 µM): 0.952
- relative viability ([4]; first compound 0.4 µM): 0.73
- relative viability ([4]; first compound 1.265 µM): 0.46
- relative viability ([4]; first compound 4 µM): 0.367
- relative viability ([5]; first compound 0.04 µM): 0.63
- relative viability ([5]; first compound 0.1265 µM): 0.38
- relative viability ([5]; first compound 0.4 µM): 0.668
- relative viability ([5]; first compound 1.265 µM): 0.316
- relative viability ([5]; first compound 4 µM): 0.127
- relative viability ([6]; first compound 0.04 µM): 0.95
- relative viability ([6]; first compound 0.1265 µM): 0.464
- relative viability ([6]; first compound 1.265 µM): 0.904
- relative viability ([7]; first compound 0.04 µM): 0.662
- relative viability ([7]; first compound 0.1265 µM): 0.619
- relative viability ([7]; first compound 0.4 µM): 0.694
- relative viability ([7]; first compound 1.265 µM): 0.479
- relative viability ([7]; first compound 4 µM): 0.473
- relative viability ([8]; first compound 0.04 µM): 0.832
- relative viability ([8]; first compound 0.1265 µM): 0.536
- relative viability ([8]; first compound 0.4 µM): 0.581
- relative viability ([8]; first compound 1.265 µM): 0.455
- relative viability ([8]; first compound 4 µM): 0.375
- relative viability ([9]; first compound 0.04 µM): 0.615
- relative viability ([9]; first compound 0.1265 µM): 0.373
- relative viability ([9]; first compound 0.4 µM): 0.406
- relative viability ([9]; first compound 1.265 µM): 0.0648
- relative viability ([9]; first compound 4 µM): 0.062
- relative viability ([10]; first compound 0.04 µM): 0.68
- relative viability ([10]; first compound 0.1265 µM): 0.517
- relative viability ([10]; first compound 0.4 µM): 0.44
- relative viability ([10]; first compound 1.265 µM): 0.407
- relative viability ([10]; first compound 4 µM): 0.223
- relative viability ([11]; first compound 0.04 µM): 0.765
- relative viability ([11]; first compound 0.1265 µM): 0.693
- relative viability ([11]; first compound 0.4 µM): 0.665
- relative viability ([11]; first compound 1.265 µM): 0.582
- relative viability ([11]; first compound 4 µM): 0.577
- relative viability ([12]; first compound 0.04 µM): 0.816
- relative viability ([12]; first compound 0.1265 µM): 0.736
- relative viability ([12]; first compound 0.4 µM): 0.686
- relative viability ([12]; first compound 1.265 µM): 0.395
- relative viability ([12]; first compound 4 µM): 0.34
- relative viability ([13]; first compound 0.04 µM): 0.605
- relative viability ([13]; first compound 0.1265 µM): 0.826
- relative viability ([13]; first compound 0.4 µM): 0.377
- relative viability ([13]; first compound 1.265 µM): 0.316
- relative viability ([13]; first compound 4 µM): 0.168
- relative viability ([14]; first compound 0.04 µM): 1.03
- relative viability ([14]; first compound 0.4 µM): 0.79
- relative viability ([14]; first compound 1.265 µM): 0.413
- relative viability ([14]; first compound 4 µM): 0.276
- relative viability ([15]; first compound 0.04 µM): 0.503
- relative viability ([15]; first compound 0.1265 µM): 0.545
- relative viability ([15]; first compound 0.4 µM): 0.494
- relative viability ([15]; first compound 1.265 µM): 0.456
- relative viability ([15]; first compound 4 µM): 0.351
- relative viability ([16]; first compound 0.04 µM): 0.603
- relative viability ([16]; first compound 0.1265 µM): 0.532
- relative viability ([16]; first compound 0.4 µM): 0.25
- relative viability ([16]; first compound 1.265 µM): 0.121
- relative viability ([16]; first compound 4 µM): 0.0762
- relative viability ([17]; first compound 0.04 µM): 0.853
- relative viability ([17]; first compound 0.1265 µM): 1.12
- relative viability ([17]; first compound 0.4 µM): 0.687
- relative viability ([17]; first compound 1.265 µM): 0.55
- relative viability ([17]; first compound 4 µM): 0.465
- relative viability ([18]; first compound 0.04 µM): 0.797
- relative viability ([18]; first compound 0.1265 µM): 0.688
- relative viability ([18]; first compound 0.4 µM): 0.676
- relative viability ([18]; first compound 1.265 µM): 0.477
- relative viability ([18]; first compound 4 µM): 0.289
- relative viability ([19]; first compound 0.04 µM): 0.722
- relative viability ([19]; first compound 0.1265 µM): 0.853
- relative viability ([19]; first compound 0.4 µM): 0.664
- relative viability ([19]; first compound 1.265 µM): 0.548
- relative viability ([19]; first compound 4 µM): 0.508
- relative viability ([20]; first compound 0.04 µM): 0.524
- relative viability ([20]; first compound 0.1265 µM): 0.405
- relative viability ([20]; first compound 0.4 µM): 0.325
- relative viability ([20]; first compound 1.265 µM): 0.323
- relative viability ([20]; first compound 4 µM): 0.29
- relative viability ([21]; first compound 0.04 µM): 1.01
- relative viability ([21]; first compound 0.1265 µM): 0.506
- relative viability ([21]; first compound 0.4 µM): 1.02
- relative viability ([21]; first compound 1.265 µM): 1.04
- relative viability ([21]; first compound 4 µM): 0.664
